Experimental data as given in PubChem BioAssay (NCI).
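Following 48 hours of exposure in 96-well plates, responses at five concentrations were used to interpolate endpoints linearly. TGI marks complete inhibition of growth.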

Tests used:
Experiment in all cases: NCI-60 cell line screen, 48 h
SF-295 CNS = tested on: SF-295 CNS
PC-3 prostate = tested on: PC-3 prostate
ACHN renal = tested on: ACHN renal
COLO 205 colon = tested on: COLO 205 colon
HOP-92 NSCLC = tested on: HOP-92 NSCLC
HCC-2998 colon = tested on: HCC-2998 colon
NCI-H460 lung = tested on: NCI-H460 lung
NCI-H522 lung = tested on: NCI-H522 lung
NCI-H23 lung = tested on: NCI-H23 lung
RPMI-8226 leukemia = tested on: RPMI-8226 leukemia

Row | SMILES | TGI (SF-295 CNS) | TGI (PC-3 prostate) | TGI (ACHN renal) | TGI (COLO 205 colon) | TGI (HOP-92 NSCLC) | TGI (HCC-2998 colon) | TGI (NCI-H460 lung) | TGI (NCI-H522 lung) | TGI (NCI-H23 lung) | TGI (RPMI-8226 leukemia)
1 | N[C@H]1CCCC[C@@H]1N1C(=O)c2ccccc2C1(O)c1ccc(Cl)cc1 (stereo partly drawn) | 30.9 µM | 24.4 µM | 27 µM | 12.6 µM | 24.9 µM | 3.5 µM | 25.2 µM | 27.8 µM | 28.6 µM | 13.6 µM
2 | CO/N=C(\C)c1cccc(Nc2c3ccccc3nc3occc23)c1 | 18.4 µM | > 100 µM | – | 17.6 µM | 43.2 µM | 20.4 µM | 23.7 µM | 7.64 µM | 20.9 µM | 27.7 µM
3 | Cc1cc(=O)oc2c(CNC(Cc3ccccc3)C(=O)O)c(O)ccc12 (stereo not drawn) | > 100 µM | > 100 µM | > 100 µM | > 100 µM | > 100 µM | > 100 µM | > 100 µM | > 100 µM | > 100 µM | > 100 µM
4 | NC(=S)N/N=C\c1nccc2ccccc12 | 0.781 µM | > 100 µM | 0.317 µM | 2.89 µM | 4.56 µM | > 68.4 µM | 25.5 µM | 32.5 µM | > 100 µM | 4.72 µM
5 | Cc1ccc(NC(=O)c2cc(S(=O)(=O)Nc3nc4ncccc4[nH]3)c(SSc3cc(Cl)c(C(=O)Nc4ccc(C)cc4)cc3S(=O)(=O)Nc3nc4ncccc4[nH]3)cc2Cl)cc1 | > 100 µM | > 100 µM | > 100 µM | > 100 µM | > 100 µM | > 100 µM | > 100 µM | > 100 µM | > 100 µM | > 100 µM
6 | CCC(=O)Nc1ccc(N2C(=O)C(Cl)C2c2ccc(SC)cc2)cc1 (stereo not drawn) | > 100 µM | > 100 µM | > 100 µM | > 100 µM | > 100 µM | 96.9 µM | > 100 µM | > 100 µM | > 100 µM | > 100 µM
7 | COC(=O)C1(C)C=CC(=O)C2(C)C1C(O)C1OC3CC(c4ccoc4)C(C)=C3C1(C)C2CC(=O)O (stereo not drawn) | > 100 µM | > 100 µM | > 100 µM | > 100 µM | > 100 µM | > 100 µM | > 100 µM | > 100 µM | > 100 µM | > 100 µM
8 | CC(=O)C1CC[C@@H]2[C@H](CC[C@]3(C)[C@@H](O)CC[C@@H]23)[C@H]1C(=O)O (stereo partly drawn) | > 100 µM | > 100 µM | – | > 100 µM | > 100 µM | > 100 µM | > 100 µM | > 100 µM | > 100 µM | > 100 µM
9 | O=[N+]([O-])c1cc(-c2nc(-c3ccccc3)c(-c3ccccc3)[nH]2)c(O)c([N+](=O)[O-])c1 | 54.2 µM | 44.3 µM | 46.7 µM | 45.1 µM | 36.9 µM | 30.8 µM | 48.3 µM | 63.7 µM | 36.1 µM | 75.1 µM
10 | OCCNCNc1nc(NCNCCO)nc(N(CNCCO)CNCCO)n1 | > 61.6 µM | 50 µM | > 68.9 µM | 30.8 µM | 51.1 µM | 36.4 µM | 59.4 µM | 41.3 µM | 46.1 µM | > 68.2 µM
